This note sets out measurements from PubChem BioAssay (NCI).

Among the test systems are SW-620 colon; ACHN renal; M14 melanoma; NCI-H226 lung; SK-OV-3 ovarian; OVCAR-5 ovarian; HOP-92 NSCLC; SNB-75 CNS; HCT-116 colon; COLO 205 colon.
Holding throughout (test): DTP human tumour cell line panel, 48 h

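Interpolation was linear, between the two tested concentrations surrounding the appropriate level; five concentrations were tested over 48 hours in 96-well plates. Here, GI50 denotes the concentration required for 50% inhibition of growth. TGI denotes the concentration required for complete inhibition of growth.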

As usually defined, the TGI is the concentration at which net growth stops. High values mean lower sensitivity of the cells, low ones greater sensitivity of the cells. Consider `COC(=O)C(C(=O)C(=O)Nc1ccccc1C(C)=O)c1nc2ccc(Cl)cc2[nH]c1=O` (stereo not given), for which the TGI with SW-620 colon, in the experiment on ACHN renal, in the experiment with M14 melanoma, with NCI-H226 lung, in the experiment on SK-OV-3 ovarian and in the experiment with OVCAR-5 ovarian was greater than 100 µM each time. Moreover, the TGI in the experiment on HOP-92 NSCLC, with SNB-75 CNS, with HCT-116 colon and in the experiment on COLO 205 colon was greater than 100 µM in each case.
As a reminder, the GI50 is the concentration giving 50% growth inhibition. In the case of `S=c1nc2[nH]ncc2c(N/N=C/c2ccccc2)[nH]1`, the GI50 with SW-620 colon is greater than 100 µM; in the experiment on ACHN renal it was 63.3 µM; in the experiment with M14 melanoma, greater than 100 µM; in the experiment with NCI-H226 lung, greater than 100 µM; in the experiment on SK-OV-3 ovarian it was greater than 100 µM; in the experiment on OVCAR-5 ovarian, greater than 100 µM. Moreover, the GI50 with HOP-92 NSCLC is greater than 100 µM; with SNB-75 CNS, greater than 100 µM; in the experiment on HCT-116 colon, 87.9 µM; in the experiment on COLO 205 colon it was greater than 100 µM. Besides, the TGI with SW-620 colon, in the experiment on ACHN renal, with M14 melanoma, in the experiment on NCI-H226 lung, in the experiment on SK-OV-3 ovarian and in the experiment on OVCAR-5 ovarian was greater than 100 µM throughout. The TGI in the experiment on HOP-92 NSCLC, with SNB-75 CNS, in the experiment on HCT-116 colon and in the experiment with COLO 205 colon was greater than 100 µM throughout.
For the compound `ClC1CCC2OOC1O2` (stereo not given), the TGI in the experiment with SW-620 colon, with ACHN renal, in the experiment with M14 melanoma, with NCI-H226 lung, in the experiment on SK-OV-3 ovarian and in the experiment with OVCAR-5 ovarian was greater than 100 µM in each case. Besides, the TGI in the experiment on HOP-92 NSCLC, in the experiment with SNB-75 CNS, with HCT-116 colon and in the experiment on COLO 205 colon was greater than 100 µM each time.
Consider `COC1C=CC(C(=O)[N+]2=Cc3[nH]c4ccccc4c3CC2)O1` (stereo not given), for which the TGI in the experiment on SW-620 colon, in the experiment on ACHN renal, in the experiment with M14 melanoma, with NCI-H226 lung, with SK-OV-3 ovarian and with OVCAR-5 ovarian was greater than 100 µM throughout. The TGI in the experiment with HOP-92 NSCLC, in the experiment with SNB-75 CNS, in the experiment with HCT-116 colon and in the experiment on COLO 205 colon was greater than 100 µM each time.
